Laboratory results as given in patent publication US8487107B2, “Biphenyl compounds useful as muscarinic receptor antagonists” (Theravance, Inc., priority 2005, dated 2013).
Counter-ions that a name gives are not always drawn.

Columns and labels:
[1] = Dynamic moisture sorption (DMS) assessment; assay type: physicochemical
Method: A dynamic moisture sorption (DMS) assessment (also known as a moisture sorption-desorption profile) was performed for samples of the crystalline diacetate salt using a VTI atmospheric microbalance, SGA-100 system (VTI Corp., Hialeah, Fla. 33016). A sample size of approximately 10 mg was used and the humidity was set at the ambient value at the start of the analysis. A typical DMS analysis consisted of three scans: ambient to 2% relative humidity (RH), 2% RH to 90% RH, 90% RH to 5% RH at a scan rate of 5% RH/step. The mass was measured every two minutes and the RH was changed to the next value (+/−5% RH) when the mass of the sample was stable to within 0.01% for 5 consecutive points.

[2] = DSC thermal analysis (thermal decomposition); assay type: physicochemical; conditions: DSC trace, heating ramp 10° C./min
Method: DSC was performed using a TA Instruments Model Q-10 module with a Thermal Analyst controller, and data were collected and analyzed using TA Instruments Thermal Solutions software. A sample of about 1 mg of the crystalline diacetate salt was accurately weighed into an aluminum pan with lid, and evaluated using a linear heating ramp of 10° C./min from ambient temperature to approximately 300° C. The DSC cell was purged with dry nitrogen during use. A representative DSC trace for this salt is shown in FIG. 2 and depicts one transition at about 114° C., no thermal decomposition below about 160° C., and maximum endothermic heat flow at about 112° C.

weight gain when exposed to up to 90% RH (DMS, reversible sorption/desorption profile) [1] | no thermal decomposition below (DSC) [2] | SMILES
less than 11% | ≥ 150 °C | CN(CCN1CCC(OC(=O)Nc2ccccc2-c2ccccc2)CC1)C(=O)c1cccc(C(=O)NCCNCc2ccc(O)cc2)c1 [crystalline dipropionate salt, Biphenyl-2-ylcarbamic Acid 1-[2-({3-[2-(4-Hydroxybenzylamino)ethylcarbamoyl]benzoyl}methylamino)ethyl]piperidin-4-yl Ester]
less than 18% | ≥ 160 °C | CN(CCN1CCC(OC(=O)Nc2ccccc2-c2ccccc2)CC1)C(=O)c1cccc(C(=O)NCCNCc2ccc(O)cc2)c1 [crystalline diacetate salt, biphenyl-2-ylcarbamic acid 1-[2-({3-[2-(4-hydroxybenzylamino)ethylcarbamoyl]benzoyl}methylamino)ethyl]piperidin-4-yl ester]
less than 14% | ≥ 150 °C | CN(CCN1CCC(OC(=O)Nc2ccccc2-c2ccccc2)CC1)C(=O)c1cccc(C(=O)NCCNCc2ccc(O)cc2)c1 [crystalline monooxalate salt, Biphenyl-2-ylcarbamic Acid 1-[2-({3-[2-(4-Hydroxybenzylamino)ethylcarbamoyl]benzoyl}methylamino)ethyl]piperidin-4-yl Ester]
